Each structure is given as a SMILES string. Bounds are passed on as bounds.

EP2 subtype of the human PGE2 receptor (hEP2 receptor), sequence (P43116 whole entry): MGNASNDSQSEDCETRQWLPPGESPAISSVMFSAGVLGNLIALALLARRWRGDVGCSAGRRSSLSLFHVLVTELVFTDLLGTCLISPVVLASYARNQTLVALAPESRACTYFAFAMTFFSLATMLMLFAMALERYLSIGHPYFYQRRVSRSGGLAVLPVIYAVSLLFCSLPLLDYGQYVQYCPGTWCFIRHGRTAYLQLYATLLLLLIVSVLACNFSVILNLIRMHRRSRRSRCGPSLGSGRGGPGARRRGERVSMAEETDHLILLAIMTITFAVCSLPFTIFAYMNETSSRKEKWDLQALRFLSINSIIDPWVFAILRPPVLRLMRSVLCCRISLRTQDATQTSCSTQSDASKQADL

The assay deals with EP2 subtype of the human PGE2 receptor (hEP2 receptor) (Homo sapiens, UniProt P43116). Briefly: cAMP antagonism test, human prostaglandin E2 (subtype EP2) receptor signal. Format: cell-based. The text has this:
1. Detection of Antagonism to the Human Prostaglandin E2 (Subtype EP2) Receptor Signal
The binding of PGE2 to the EP2 subtype of the human PGE2 receptor induces the activation of membrane-located adenylate cyclases and leads to the formation of cAMP. In the presence of the phosphodiesterase inhibitor IBMX, the cAMP accumulated owing to this stimulation and released by cell lysis is used in a competitive detection method. In this test, the cAMP present in the lysate competes with a fluorescence-labelled cAMP (cAMP-d2) for binding to an Eu cryptate-labelled anti-cAMP antibody.
In the absence of cellular cAMP, a maximal signal is produced, which is attributable to the binding of this cAMP-d2 molecule to the antibody. After excitation of the […] at 337 nm, there is a fluorescence resonance energy transfer (FRET) to the Eu cryptate molecules of the anti-cAMP antibody (labelled therewith), followed by a long-lasting emission signal at 665 nm (and at […]). Both signals are measured in a suitable measurement instrument with a time delay, i.e. after decay of the background fluorescence. Any increase in the low FRET signal caused by prostaglandin E2 administration (measured as well ratio change=emission665nm/emission620nm*10000) indicates the action of antagonists.
1.2.1. Test for Antagonism (Data Per Well of a 384-Well Plate):
To a test plate with the substance solutions already added (0.05 μl; 100% DMSO, concentration range from 0.8 nM-16.5 nM) were added 4 μl of a cAMP-d2/cell suspension (625000 cells/ml). After a 20-minute preincubation at room temperature (RT), 2 μl of a 3×PGE2 solution (1.5 nM, in PBS-IBMX) were added and incubated in the presence of the agonist for a further 60 mins at RT (volume: […]). Next the reaction was stopped by addition of 2 μl of lysis buffer and incubated for a further 20 mins at RT before the actual measurement (volume: ˜8 μl).
The IC50 is the concentration that inhibits the measured activity by half. Lower therefore signals greater potency. `Cc1c(C(=O)NCCOC(C)C)ccc2nn(CC3CCN(C(=O)c4ccc(C(F)(F)F)cc4)CC3)cc12` [Example E74, N-(2-isopropoxyethyl)-4-methyl-2-({1-[4-(trifluoromethyl)benzoyl]piperidin-4-yl}-methyl)-2H-indazole-5-carboxamide] gave an IC50 above 50 nM.

The molecule `Cc1c(C(=O)NCCOC(C)C)ccc2nn(CC3CCN(C(=O)c4ccc(-c5ccc(F)cc5)cc4)CC3)cc12` [Example E75, 2-({1-[(4′-fluorobiphenyl-4-yl)carbonyl]piperidin-4-yl}methyl)-N-(2-isopropoxyethyl)-4-methyl-2H-indazole-5-carboxamide] came in with an IC50 above 50 nM.

The molecule `Cc1c(C(=O)NCCOC(C)C)ccc2nn(CC3CCN(C(=O)c4ccc(C5CC5)cc4)CC3)cc12` [Example E76, 2-{[1-(4-cyclopropylbenzoyl)piperidin-4-yl]methyl}-N-(2-isopropoxyethyl)-4-methyl-2H-indazole-5-carboxamide] gave an IC50 above 50 nM.

For the molecule `Cc1c(C(=O)NCCOC(F)(F)F)ccc2nn(CC3CCN(C(=O)c4ccc(Cl)cc4)CC3)cc12` [Example E77, 2-{[1-(4-chlorobenzoyl)piperidin-4-yl]methyl}-4-methyl-N-[2-(trifluoromethoxy)ethyl]-2H-indazole-5-carboxamide], the IC50 is above 50 nM.

`Cc1c(C(=O)NCCOC(F)(F)F)ccc2nn(CC3CCN(C(=O)c4ccc(Oc5ccc(F)cc5)cc4)CC3)cc12` [Example E78, 2-({1-[4-(4-fluorophenoxy)benzoyl]piperidin-4-yl}methyl)-4-methyl-N-[2-(trifluoro-methoxy)ethyl]-2H-indazole-5-carboxamide]: the IC50 was above 50 nM.

As for `Cc1c(C(=O)NCCOC(F)(F)F)ccc2nn(CC3CCN(C(=O)c4ccc(-c5ccc(F)cc5)cc4)CC3)cc12` [Example E79, 2-({1-[(4′-fluorobiphenyl-4-yl)carbonyl]piperidin-4-yl}methyl)-4-methyl-N-[2-(trifluoromethoxy)ethyl]-2H-indazole-5-carboxamide], the IC50 is above 50 nM.

On to `Cc1c(C(=O)NCCOC(F)(F)F)ccc2nn(CC3CCN(C(=O)c4ccc(Oc5ccc(C(F)(F)F)cc5)cc4)CC3)cc12` [Example E80, 4-methyl-N-[2-(trifluoromethoxy)ethyl]-2-[(1-{4-[4-(trifluoromethyl)phenoxy]-benzoyl}piperidin-4-yl)methyl]-2H-indazole-5-carboxamide], for which the IC50 is above 50 nM.

Regarding `Cc1c(C(=O)NCCOC(C)(C)C)ccc2nn(CC3CCN(C(=O)c4ccc(Cl)cc4)CC3)cc12` [Example E81, N-(2-tert-butoxyethyl)-2-{[1-(4-chlorobenzoyl)piperidin-4-yl]methyl}-4-methyl-2H-indazole-5-carboxamide], the IC50 was above 50 nM.

Take `Cc1c(C(=O)NCCOC(C)(C)C)ccc2nn(CC3CCN(C(=O)c4ccc(Oc5ccc(F)cc5)cc4)CC3)cc12` [Example E82, N-(2-tert-butoxyethyl)-2-({1-[4-(4-fluorophenoxy)benzoyl]piperidin-4-yl}methyl)-4-methyl-2H-indazole-5-carboxamide]: the IC50 is above 50 nM.

As for `Cc1c(C(=O)NCCOC(C)(C)C)ccc2nn(CC3CCN(C(=O)c4ccc(-c5ccc(F)cc5)cc4)CC3)cc12` [Example E83, N-(2-tert-butoxyethyl)-2-({1-[(4′-fluorobiphenyl-4-yl)carbonyl]piperidin-4-yl}methyl)-4-methyl-2H-indazole-5-carboxamide], the IC50 was above 50 nM.

For the molecule `Cc1c(C(=O)NCCOC(C)(C)C)ccc2nn(CC3CCN(C(=O)c4ccc(Oc5ccc(C(F)(F)F)cc5)cc4)CC3)cc12` [Example E84, N-(2-tert-butoxyethyl)-4-methyl-2-[(1-{4-[4-(trifluoromethyl)phenoxy]benzoyl}-piperidin-4-yl)methyl]-2H-indazole-5-carboxamide], the IC50 was above 50 nM.

`[2H]C([2H])([2H])OC([2H])([2H])C([2H])([2H])NC(=O)c1ccc2nn(CC3CCN(C(=O)c4ccc(Cl)cc4)CC3)cc2c1C` [Example E85, 2-{[1-(4-chlorobenzoyl)piperidin-4-yl]methyl}-4-methyl-N-{2-[(^2H3)methyloxy]-(^2H4)ethyl}-2H-indazole-5-carboxamide]: the IC50 was above 50 nM.

Take `[2H]C([2H])([2H])OC([2H])([2H])C([2H])([2H])NC(=O)c1ccc2nn(CC3CCN(C(=O)c4ccc(Oc5ccc(F)cc5)cc4)CC3)cc2c1C` [Example E86, 2-({1-[4-(4-fluorophenoxy)benzoyl]piperidin-4-yl}methyl)-4-methyl-N-{2-[(^2H3)methyloxy](^2H4)ethyl}-2H-indazole-5-carboxamide]: the IC50 is above 50 nM.

For `COCCNC(=O)c1ccc2nn(CC3CN(C(=O)c4ccc(Cl)cc4)C3)cc2c1C` [Example E87, 2-{[1-(4-chlorobenzoyl)azetidin-3-yl]methyl}-N-(2-methoxyethyl)-4-methyl-2H-indazole-5-carboxamide], the IC50 is above 50 nM.

`COCCNC(=O)c1ccc2nn(CC3CN(C(=O)c4ccc(SC(F)(F)F)cc4)C3)cc2c1C` [Example E88, N-(2-methoxyethyl)-4-methyl-2-[(1-{4-[(trifluoromethyl)sulphanyl]benzoyl}azetidin-3-yl)methyl]-2H-indazole-5-carboxamide] showed an IC50 above 50 nM.

In turn, `COCCNC(=O)c1ccc2nn(CC3CN(C(=O)c4ccc(OC(F)(F)F)cc4)C3)cc2c1C` [Example E89, N-(2-methoxyethyl)-4-methyl-2-({1-[4-(trifluoromethoxy)benzoyl]azetidin-3-yl}-methyl)-2H-indazole-5-carboxamide] displayed an IC50 above 50 nM.

In turn, `COCCNC(=O)c1ccc2nn(CC3CN(C(=O)c4ccc(C(F)(F)F)cc4F)C3)cc2c1C` [Example E90, 2-({1-[2-fluoro-4-(trifluoromethyl)benzoyl]azetidin-3-yl}methyl)-N-(2-methoxyethyl)-4-methyl-2H-indazole-5-carboxamide] yielded an IC50 above 50 nM.

As for `COCCNC(=O)c1ccc2nn(CC3CN(C(=O)c4ccc(Cl)cc4F)C3)cc2c1C` [Example E91, 2-{[1-(4-chloro-2-fluorobenzoyl)azetidin-3-yl]methyl}-N-(2-methoxyethyl)-4-methyl-2H-indazole-5-carboxamide], the IC50 is above 50 nM.

`COCCNC(=O)c1ccc2nn(CC3CN(C(=O)c4ccc(C(F)(F)F)c(F)c4)C3)cc2c1C` [Example E92, 2-({1-[3-fluoro-4-(trifluoromethyl)benzoyl]azetidin-3-yl}methyl)-N-(2-methoxyethyl)-4-methyl-2H-indazole-5-carboxamide]: the IC50 was above 50 nM.

The molecule `COCCNC(=O)c1ccc2nn(CC3CN(C(=O)c4ccc(Cl)c(C(F)(F)F)c4)C3)cc2c1C` [Example E93, 2-({1-[4-chloro-3-(trifluoromethyl)benzoyl]azetidin-3-yl}methyl)-N-(2-methoxyethyl)-4-methyl-2H-indazole-5-carboxamide] displayed an IC50 above 50 nM.

`COCCNC(=O)c1ccc2nn(CC3CN(C(=O)c4ccc(C5CC5)cc4)C3)cc2c1C` [Example E94, 2-{[1-(4-cyclopropylbenzoyl)azetidin-3-yl]methyl}-N-(2-methoxyethyl)-4-methyl-2H-indazole-5-carboxamide] gave an IC50 above 50 nM.

For `COCCNC(=O)c1ccc2nn(CC3CN(C(=O)c4ccc(Oc5ccc(C(F)(F)F)cc5)cc4)C3)cc2c1C` [Example E95, N-(2-methoxyethyl)-4-methyl-2-[(1-{4-[4-(trifluoromethyl)phenoxy]benzoyl}azetidin-3-yl)methyl]-2H-indazole-5-carboxamide], the IC50 is above 50 nM.

For the molecule `Cc1c(C(=O)NCCOC2CC2)ccc2nn(CC3CN(C(=O)c4ccc(OC(F)(F)F)cc4)C3)cc12` [Example E100, N-[2-(cyclopropyloxy)ethyl]-4-methyl-2-({1-[4-(trifluoromethoxy)benzoyl]azetidin-3-yl}methyl)-2H-indazole-5-carboxamide], the IC50 is above 50 nM.

`Cc1c(C(=O)NCCOC2CCC2)ccc2nn(CC3CN(C(=O)c4ccc(OC(F)(F)F)cc4)C3)cc12` [Example E101, N-[2-(cyclobutyloxy)ethyl]-4-methyl-2-({1-[4-(trifluoromethoxy)benzoyl]azetidin-3-yl}methyl)-2H-indazole-5-carboxamide] registered an IC50 above 50 nM.

`Cc1c(C(=O)NCCOCC2CC2)ccc2nn(CC3CN(C(=O)c4ccc(Cl)cc4)C3)cc12` [Example E102, 2-{[1-(4-chlorobenzoyl)azetidin-3-yl]methyl}-N-[2-(cyclopropylmethoxy)ethyl]-4-methyl-2H-indazole-5-carboxamide]: the IC50 is above 50 nM.

For the molecule `Cc1c(C(=O)NCCOCC2CC2)ccc2nn(CC3CN(C(=O)c4ccc(Oc5ccc(F)cc5)cc4)C3)cc12` [Example E103, N-[2-(cyclopropylmethoxy)ethyl]-2-({1-[4-(4-fluorophenoxy)benzoyl]azetidin-3-yl}-methyl)-4-methyl-2H-indazole-5-carboxamide], the IC50 was above 50 nM.

The record behind these values is patent publication US9655887B2, “Pharmaceutical composition and the use thereof, and application regime of said pharmaceutical composition for on-demand contraception” (BAYER PHARMA AKTIENGESELLSCHAFT, priority 2013, dated 2017).
